# According to publication PMC10382516, “Exploring ND-011992, a quinazoline-type inhibitor targeting quinone reductases and quinol oxidases” (Scientific Reports, 2023):
# What was measured:
# [1] = system: NADH oxidase activity of membranes from E. coli strain BL21*Δcyo; experiment: NADH oxidase activity of E. coli BL21*Δcyo cytoplasmic membranes (Clark-type oxygen electrode); format: biochemical, Escherichia coli
# Experimental: (§1) The inhibitory effect of ND-011992 on the NADH oxidase activity of membranes from E. coli strain BL21*Δcyo was determined. This activity is mainly mediated by the primary NADH dehydrogenases and the terminal oxidases. Strain BL21*Δcyo chromosomally lacks the bo3-oxidase and contains the homologous bd-I and bd-II oxidases as the only terminal oxidases. BL21*Δcyo was grown in full medium, cells were harvested and disrupted and cytoplasmic membranes were prepared by differential centrifugation. With NADH as substrate, electrons might enter the respiratory chain either via complex I or via the alternative, non-energy converting NADH dehydrogenase, NDH-II. […] Second, deamino-NADH (d-NADH) was used as substrate to determine the d-NADH oxidase activity of BL21*Δcyo membranes. d-NADH is a substrate specific for complex I preventing electron entry to the respiratory chain via NDH-II[15],[16]. […] The shift of the IC50 in dependence from the substrate already indicates a high-affinity inhibition of respiratory complex I by ND-011992.
# (§2) The (d-)NADH oxidase activity of cytoplasmic membranes was determined with an Clark-type oxygen electrode (Oxyview System, Hansatech Instruments) at 30 °C[19]. […] The non-enzymatic reaction was determined after formation of a stable baseline. […] The protein concentration of membranes were determined by the biuret-method[32]. […]
# E. coli bd-II oxidase = biological target: T1, E. coli bd-II oxidase (Escherichia coli, UniProt P26459); experiment: Duroquinol:oxygen oxidoreductase activity of isolated bd-II oxidase; format: biochemical
# T1 construct: His-tag; made in house; host or cells: E. coli BL21*Δcyo/pET28b(+)::appChisBX
# Experimental: (§3) E. coli bd-I oxidase was isolated from strain BL21*Δcyo/pET28b( +)::cydAhisBX[13], bd-II oxidase from strain BL21*Δcyo/pET28b( +)::appChisBX[19] and bo3 oxidase from strain BL21*Δcyo/pET28b( +)::cyoAhisBCD (see ‘Methods’). The index “his” indicates the subunit of the enzyme complexes decorated with a His-tag. All strains were grown under oxic conditions in full medium. Cells were harvested and disrupted and cytoplasmic membranes were prepared by differential centrifugation. Membrane proteins were extracted with the detergent lauryl maltose neopentyl glycol (LMNG) and purified to homogeneity by affinity-, anion exchange- and size exclusion-chromatography (see Supplementary Figs. S7–S9).
# (§4) The affinity of ND-011992 towards the isolated oxidases was determined by its inhibition of the duroquinol:oxygen oxidoreductase activity measured as decrease of oxygen concentration. […] Thus, there is a significant two-fold difference in binding of ND-011992 towards the two homologous oxidases. Furthermore, the IC50 is higher than that to respiratory complex I, showing that the compound binds better to complex I than to bd-I and to bd-II oxidase. Incorporation of bromine to the compound led to significant changes of inhibition.
# (§5) The duroquinol:oxygen oxidoreductase activity of isolated E. coli bd-I, bd-II and bo3 oxidase was determined by monitoring the oxygen consumption with a Clark-type oxygen electrode (Oxyview System, Hansatech Instruments)[20],[33]. All steps were conducted at 30 °C. The reaction chamber was filled with 2 mL 20 mM MOPS, 20 mM NaCl, 0.003% LMNG, pH 7.0. After formation of a stable baseline, 10 μL dithiothreitol (DTT) (1 M) and 5 μL duroquinone in ethanol (100 mM) were added and incubated for 1 min. The non-enzymatic reaction rate was determined. 10 μL enzyme in LMNG (2 mg/mL) were added to start the reaction. The rates were corrected for the non-enzymatic reaction. After 1 min, the reaction was inhibited by adding various amounts (0.01–50 µM) of ND-011992 and 2, respectively. Each data point was measured in triplicates. The standard deviation of each measurement is provided.
# E. coli bd-I oxidase = biological target: T2, E. coli bd-I oxidase (Escherichia coli, UniProt P0ABJ9); experiment: Duroquinol:oxygen oxidoreductase activity of isolated bd-I oxidase; format: biochemical
# T2 construct: His-tag; made in house; host or cells: E. coli BL21*Δcyo/pET28b(+)::cydAhisBX
# Experimental: as §3, §4, §5
# respiratory complex I = respiratory complex I (Escherichia coli, UniProt P0AFC7+P0AFD4+P33599); experiment: d-NADH:decyl-ubiquinone oxidoreductase activity of E. coli CBO cytoplasmic membranes; format: biochemical; conditions: 1 mM KCN
# [2] = system: d-NADH oxidase activity of BL21*Δcyo membranes; experiment: d-NADH oxidase activity of E. coli BL21*Δcyo cytoplasmic membranes; format: biochemical, Escherichia coli; conditions: d-NADH as substrate, 30 °C
# Experimental: as §1, §2
# [3] = set-up: method as in PMID 33283973; conditions: as mentioned in the original publication; cited from earlier work
# mitochondrial complex I = mitochondrial complex I (Bos taurus, UniProt P03887+P17694+P42026); format: biochemical, bovine
# E. coli bo3 oxidase = biological target: T3, E. coli bo3 oxidase (Escherichia coli, UniProt P0ABI8); experiment: Duroquinol:oxygen oxidoreductase activity of isolated bo3 oxidase; format: biochemical
# T3 construct: made in house; host or cells: E. coli BL21*Δcyo/pET28b(+)::cyoAhisBCD
# Experimental: as §3
# Because it was claimed that ND-011992 is an inhibitor specific for bd oxidases, we also determined its IC50 towards the isolated bo3 oxidase. As bd oxidases, bo3 oxidase is also a quinol oxidase.
# The duroquinol:oxygen oxidoreductase activity of isolated E. coli bd-I, bd-II and bo3 oxidase was determined by monitoring the oxygen consumption with a Clark-type oxygen electrode (Oxyview System, Hansatech Instruments)[20],[33]. All steps were conducted at 30 °C. The reaction chamber was filled with 2 mL 20 mM MOPS, 20 mM NaCl, 0.003% LMNG, pH 7.0. […] The non-enzymatic reaction rate was determined. […] Each data point was measured in triplicates. […]
# T2 sequence (P0ABJ9 whole entry): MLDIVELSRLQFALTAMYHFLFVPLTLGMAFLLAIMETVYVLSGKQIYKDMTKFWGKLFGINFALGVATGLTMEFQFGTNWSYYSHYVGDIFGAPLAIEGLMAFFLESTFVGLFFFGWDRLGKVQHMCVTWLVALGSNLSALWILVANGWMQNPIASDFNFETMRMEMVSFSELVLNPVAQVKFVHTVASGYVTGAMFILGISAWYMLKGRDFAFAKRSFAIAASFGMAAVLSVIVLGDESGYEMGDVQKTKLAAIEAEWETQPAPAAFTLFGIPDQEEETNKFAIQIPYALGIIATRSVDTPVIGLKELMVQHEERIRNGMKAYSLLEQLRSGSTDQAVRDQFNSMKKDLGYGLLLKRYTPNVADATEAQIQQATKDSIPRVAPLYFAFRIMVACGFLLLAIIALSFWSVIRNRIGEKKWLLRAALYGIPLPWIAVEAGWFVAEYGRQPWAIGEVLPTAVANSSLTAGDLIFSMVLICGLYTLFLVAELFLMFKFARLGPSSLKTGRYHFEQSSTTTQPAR
# T2 sequence (P56100 whole entry, further chain): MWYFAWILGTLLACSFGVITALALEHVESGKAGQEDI
# T2 sequence (P0ABK2 whole entry, further chain): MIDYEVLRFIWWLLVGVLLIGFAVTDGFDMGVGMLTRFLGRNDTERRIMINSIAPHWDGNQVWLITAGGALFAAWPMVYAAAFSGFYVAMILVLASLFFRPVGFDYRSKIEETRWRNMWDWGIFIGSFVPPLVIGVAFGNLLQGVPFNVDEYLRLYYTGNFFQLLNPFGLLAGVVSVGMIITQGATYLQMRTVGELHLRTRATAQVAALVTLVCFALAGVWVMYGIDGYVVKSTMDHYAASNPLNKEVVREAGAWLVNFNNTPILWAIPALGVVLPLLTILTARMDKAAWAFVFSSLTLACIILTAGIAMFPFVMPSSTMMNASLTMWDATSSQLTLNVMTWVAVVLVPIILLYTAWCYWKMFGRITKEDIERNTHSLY
# T1 sequence (P26458 whole entry): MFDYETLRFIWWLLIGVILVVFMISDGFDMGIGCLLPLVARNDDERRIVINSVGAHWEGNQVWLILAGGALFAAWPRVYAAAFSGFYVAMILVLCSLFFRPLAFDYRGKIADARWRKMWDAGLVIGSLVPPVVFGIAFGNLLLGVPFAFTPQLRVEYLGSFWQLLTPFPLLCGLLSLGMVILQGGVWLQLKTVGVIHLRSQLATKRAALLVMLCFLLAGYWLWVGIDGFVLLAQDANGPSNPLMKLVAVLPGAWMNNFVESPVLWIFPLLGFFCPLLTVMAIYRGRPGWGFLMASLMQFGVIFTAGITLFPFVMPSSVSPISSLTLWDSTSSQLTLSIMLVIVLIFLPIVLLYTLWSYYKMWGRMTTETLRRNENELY
# T1 sequence (P24244 whole entry, further chain): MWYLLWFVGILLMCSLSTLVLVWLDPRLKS
# T1 sequence (P26459 whole entry): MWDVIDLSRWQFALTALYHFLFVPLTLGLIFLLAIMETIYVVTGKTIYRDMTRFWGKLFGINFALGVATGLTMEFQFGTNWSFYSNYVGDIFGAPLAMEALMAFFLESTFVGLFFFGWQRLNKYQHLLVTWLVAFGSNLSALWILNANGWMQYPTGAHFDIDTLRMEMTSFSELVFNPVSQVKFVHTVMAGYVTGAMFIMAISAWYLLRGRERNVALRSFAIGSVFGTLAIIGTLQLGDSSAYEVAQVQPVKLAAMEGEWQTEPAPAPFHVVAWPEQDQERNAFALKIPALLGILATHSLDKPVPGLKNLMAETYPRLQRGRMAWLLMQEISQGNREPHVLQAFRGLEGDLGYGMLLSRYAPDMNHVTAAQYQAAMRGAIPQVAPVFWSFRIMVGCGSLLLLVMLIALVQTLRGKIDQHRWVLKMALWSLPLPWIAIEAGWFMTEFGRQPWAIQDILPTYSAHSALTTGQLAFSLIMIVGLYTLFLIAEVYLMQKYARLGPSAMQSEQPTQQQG
# T3 sequence (P0ABJ6 whole entry): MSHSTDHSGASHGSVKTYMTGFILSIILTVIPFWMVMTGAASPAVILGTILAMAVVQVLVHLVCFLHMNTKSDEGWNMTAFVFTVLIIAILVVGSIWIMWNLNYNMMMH
# T3 sequence (P0ABJ3 whole entry, further chain): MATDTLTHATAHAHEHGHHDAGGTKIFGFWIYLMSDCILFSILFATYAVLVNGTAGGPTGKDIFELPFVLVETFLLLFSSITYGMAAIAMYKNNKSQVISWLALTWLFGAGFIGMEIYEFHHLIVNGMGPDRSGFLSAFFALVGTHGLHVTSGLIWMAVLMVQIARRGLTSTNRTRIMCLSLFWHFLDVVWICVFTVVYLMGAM
# T3 sequence (P0ABJ1 25-315, further chain): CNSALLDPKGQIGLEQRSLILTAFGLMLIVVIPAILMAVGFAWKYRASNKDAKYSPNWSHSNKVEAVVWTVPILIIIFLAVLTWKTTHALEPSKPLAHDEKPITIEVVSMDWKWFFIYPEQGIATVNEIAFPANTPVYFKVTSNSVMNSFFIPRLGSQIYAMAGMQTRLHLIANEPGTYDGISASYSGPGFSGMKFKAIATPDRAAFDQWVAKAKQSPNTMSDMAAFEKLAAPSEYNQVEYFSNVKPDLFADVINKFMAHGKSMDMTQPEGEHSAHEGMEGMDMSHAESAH
# T3 sequence (P0ABI8 whole entry): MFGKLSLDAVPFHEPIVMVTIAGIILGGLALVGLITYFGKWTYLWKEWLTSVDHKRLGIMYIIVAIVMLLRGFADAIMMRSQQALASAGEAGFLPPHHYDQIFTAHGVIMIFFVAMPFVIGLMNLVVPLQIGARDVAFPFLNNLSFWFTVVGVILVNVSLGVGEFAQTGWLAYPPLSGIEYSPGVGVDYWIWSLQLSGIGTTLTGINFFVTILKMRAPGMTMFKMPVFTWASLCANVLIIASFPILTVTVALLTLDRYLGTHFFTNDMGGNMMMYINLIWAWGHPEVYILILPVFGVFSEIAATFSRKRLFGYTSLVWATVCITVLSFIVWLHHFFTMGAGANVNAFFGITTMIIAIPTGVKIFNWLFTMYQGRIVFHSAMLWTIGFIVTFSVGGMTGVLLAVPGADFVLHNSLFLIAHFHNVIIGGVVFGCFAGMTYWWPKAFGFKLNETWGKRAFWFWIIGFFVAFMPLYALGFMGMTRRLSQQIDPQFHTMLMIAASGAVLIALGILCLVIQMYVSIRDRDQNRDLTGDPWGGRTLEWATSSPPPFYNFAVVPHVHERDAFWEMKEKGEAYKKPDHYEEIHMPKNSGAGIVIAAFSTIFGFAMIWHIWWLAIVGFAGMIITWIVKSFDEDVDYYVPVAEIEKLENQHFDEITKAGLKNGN
Structure (SMILES),effect on the NADH oxidase activity of E. coli membranes ([1]; micromolar concentration range),IC50 (E. coli bd-II oxidase) [nM],IC50 (E. coli bd-I oxidase) [nM],"IC50 ([1]; E. coli BL21*Δcyo membranes, NADH as substrate, 30 °C) [nM]",IC50 (respiratory complex I) [nM],"residual activity (E. coli bd-II oxidase; isolated bd-II oxidase, partial inhibition in titration)",IC50 [2] [nM],pharmacokinetic properties [3],"residual activity (E. coli bd-I oxidase; isolated bd-I oxidase, partial inhibition in titration)",IC50 (mitochondrial complex I) [nM],"residual activity (mitochondrial complex I; bovine heart mitochondrial membranes, NADH oxidase activity)",IC50 (E. coli bo3 oxidase) [nM],"residual activity (E. coli bo3 oxidase; isolated bo3 oxidase, partial inhibition in titration)"
"FC(F)(F)c1ccc(Oc2ccc(Nc3ncnc4ccc(Br)cc34)cc2)cc1 [compound 2, 6-bromo-N-(4-(4-(trifluoromethyl)phenoxy)phenyl)quinazolin-4-amine]",no effect,130,1030,–,–,–,–,–,–,–,–,–,–
"FC(F)(F)c1ccc(Oc2ccc(Nc3ncnc4ccccc34)cc2)cc1 [ND-011992, N-(4-(4-(trifluoromethyl)phenoxy)phenyl)quinazolin-4-amine]",–,1300,630,430,120,about 20%,260,poor,about 20%,3270,about 20%,2470,about 20%
